What was measured:
[1] = Pharmacokinetics after IV or oral administration in dog; format: in vivo; settings: Beagle dog M; for AUC(0-inf) / Cmax / Tmax / half-life / bioavailability: male, plasma
Text: (§1) The pharmacokinetics of compounds of the invention were compared in mouse, rat and dog by either intravenous or oral administration in various formulations including drug powder in capsules or in combination with generally recognized as safe (GRAS) excipients. After administration in animals, blood samples were collected at the appropriate time points and plasma was obtained for bioanalysis. Compounds were extracted by protein precipitation and analyzed by LC-UV or LC-MS/MS. PK analysis was performed by noncompartmental analysis using WinNonlin. Oral bioavailability (% F) was calculated based on AUC of Compound 1.
(§2) Blood was collected into heparinized tubes that contained dithioreitol (DTT; ˜2 mg/mL) at each time point. After centrifugation plasma was transferred to a new tube that contained DMSO (Plasma:DMSO ration 2:1 for rat/mouse, 9:1 for dog).
(§3) The pharmacokinetic parameters for compounds of the invention were determined from the plasma concentration data using the Noncompartmental Analysis module in WinNonlin, version 5.0 (Pharsight Corporation).

[2] = Aqueous solubility; format: physicochemical; settings: water
[3] = Pharmacokinetics after IV or oral administration in mouse; format: in vivo; settings: female, plasma, CD-1 mouse F
Text: as §1, §2, §3

[4] = Pharmacokinetics after IV or oral administration in rat; format: in vivo, SD rat; settings: for AUC(0-inf) / Cmax / Tmax / half-life / bioavailability: male, Sprague-Dawley, plasma
Text: as §1, §2, §3

[5] = beagle, dog, iv, 10 mg/kg, 1 h IV infusion, EES (sol'n)
[6] = beagle, dog, po, 50 mg/kg, TPGS/PEG400 (sol'n)
[7] = beagle, dog, po, 50 mg/kg, capsule (powder), 50 mg/kg as Compound 1 (free acid)
[8] = beagle, dog, po, 50 mg/kg, nanoparticles (colloidal dispersion)
[9] = IV bolus, EES (sol'n), 10 mg/kg
[10] = PO, TPGS/PEG400 (sol'n), 100 mg/kg
[11] = rat, iv, 25 mg/kg, SD rat M, IV bolus, EES (sol'n)
[12] = rat, iv, 50 mg/kg, SD rat M, IV bolus, Phospholipid
[13] = rat, iv, 80 mg/kg, SD rat M, IV bolus, HP-β-CD/saline
[14] = rat, iv, 80 mg/kg, SD rat M, IV bolus, Lyophilized HP-β-CD/saline
[15] = rat, other: PI, 80 mg/kg, SD rat M, route PI, Lyophilized HP-β-CD/saline, 80 mg/kg
[16] = rat, po, 50 mg/kg, SD rat M, 0.5% MC (suspension)
[17] = rat, po, 50 mg/kg, SD rat M, Phospholipid
[18] = rat, po, 50 mg/kg, SD rat M, TPGS/PEG400 (sol'n)
[19] = rat, po, 50 mg/kg, SD rat M, nanoparticles (colloidal dispersion)
[20] = rat, po, 80 mg/kg, SD rat M, HP-β-CD/saline
[21] = rat, PO, nanoparticles (colloidal dispersion) vs 0.5% methylcellulose suspension
[22] = rat, po, 50 mg/kg, SD rat M, capsule (powder), 50 mg/kg as Compound 1 (free acid)
[23] = rat, iv, 25 mg/kg, SD rat M, IV bolus, Saline
[24] = rat, po, 50 mg/kg, SD rat M, Saline
[25] = PO, capsule (powder), 50 mg/kg as Compound 1 (free acid)

SMILES: CN(NC(=O)CC(=O)NN(C)C(=S)c1ccccc1)C(=S)c1ccccc1 [Compound 1]
- AUC(0-inf) [1, 5]: 25800 ng·h/mL
- Cmax [1, 5]: 11600 ng/mL
- Tmax [1, 5]: 60 min
- half-life [1, 5]: 72 min
- AUC(0-inf) [1, 6]: 87500 ng·h/mL
- Cmax [1, 6]: 38100 ng/mL
- Tmax [1, 6]: 24 min
- half-life [1, 6]: 132 min
- bioavailability ([1]; beagle, dog, po, 50 mg/kg, TPGS/PEG400 (sol'n), reference Compound 1 IV infusion): 68%
- AUC(0-inf) [1, 7]: 6520 ng·h/mL
- Cmax [1, 7]: 1330 ng/mL
- Tmax [1, 7]: 120 min
- half-life [1, 7]: 150 min
- bioavailability ([1]; beagle, dog, po, 50 mg/kg, capsule (powder), 50 mg/kg as Compound 1 (free acid), reference Compound 1 IV infusion, based on AUC of Compound 1): < 5%
- AUC(0-inf) [1, 8]: 57500 ng·h/mL
- Cmax [1, 8]: 16800 ng/mL
- Tmax [1, 8]: 48 min
- half-life [1, 8]: 288 min
- bioavailability ([1]; beagle, dog, po, 50 mg/kg, nanoparticles (colloidal dispersion), reference Compound 1 IV infusion): 44.6%
- solubility [2]: < 0.1 mg/mL
- AUC(0-inf) [3, 9]: 3950 ng·h/mL
- Cmax [3, 9]: 6500 ng/mL
- Tmax [3, 9]: 4.98 min
- half-life [3, 9]: 54 min
- AUC(0-inf) [3, 10]: 8640 ng·h/mL
- Cmax [3, 10]: 12400 ng/mL
- Tmax [3, 10]: 15 min
- half-life [3, 10]: 60 min
- bioavailability ([3]; PO, TPGS/PEG400 (sol'n), 100 mg/kg, reference Compound 1 IV bolus): 21.9%
- AUC(0-inf) [4, 11]: 9270 ng·h/mL
- Cmax [4, 11]: 29000 ng/mL
- Tmax [4, 11]: 4.98 min
- half-life [4, 11]: 102 min
- AUC(0-inf) [4, 12]: 29700 ng·h/mL
- Cmax [4, 12]: 95300 ng/mL
- Tmax [4, 12]: 4.98 min
- half-life [4, 12]: 54 min
- AUC(0-inf) [4, 13]: 23700 ng·h/mL
- Cmax [4, 13]: 58800 ng/mL
- Tmax [4, 13]: 4.98 min
- half-life [4, 13]: 48 min
- AUC(0-inf) [4, 14]: 25700 ng·h/mL
- Cmax [4, 14]: 63800 ng/mL
- Tmax [4, 14]: 4.98 min
- half-life [4, 14]: 24 min
- AUC(0-inf) [4, 15]: 5190 ng·h/mL
- Cmax [4, 15]: 2550 ng/mL
- Tmax [4, 15]: 15 min
- bioavailability [4, 15]: 21.3%
- half-life [4, 15]: 138 min
- AUC(0-inf) [4, 16]: 1220 ng·h/mL
- Cmax [4, 16]: 280 ng/mL
- Tmax [4, 16]: 30 min
- half-life [4, 16]: 192 min
- bioavailability ([4]; rat, po, 50 mg/kg, SD rat M, 0.5% MC (suspension), reference Compound 1 IV bolus): 6.6%
- AUC(0-inf) [4, 17]: 3790 ng·h/mL
- Cmax [4, 17]: 2050 ng/mL
- Tmax [4, 17]: 15 to 30 min
- bioavailability [4, 17]: 8.8%
- half-life [4, 17]: 54 min
- AUC(0-inf) [4, 18]: 2770 ng·h/mL
- Cmax [4, 18]: 1410 ng/mL
- Tmax [4, 18]: 18 min
- half-life [4, 18]: 126 min
- bioavailability ([4]; rat, po, 50 mg/kg, SD rat M, TPGS/PEG400 (sol'n), reference Compound 1 IV bolus): 14.9%
- AUC(0-inf) [4, 19]: 2370 ng·h/mL
- Cmax [4, 19]: 1070 ng/mL
- Tmax [4, 19]: 18 min
- half-life [4, 19]: 186 min
- bioavailability ([4]; rat, po, 50 mg/kg, SD rat M, nanoparticles (colloidal dispersion), reference Compound 1 IV bolus): 12.8%
- AUC(0-inf) [4, 20]: 4330 ng·h/mL
- Cmax [4, 20]: 2210 ng/mL
- Tmax [4, 20]: 15 to 30 min
- bioavailability [4, 20]: 17.5%
- half-life [4, 20]: 72 min
- AUC after nanoparticles compared with the suspension [4, 21]: higher
- Cmax after nanoparticles compared with the suspension [4, 21]: higher

SMILES: CN(/N=C(\[O-])C/C([O-])=N/N(C)C(=S)c1ccccc1)C(=S)c1ccccc1.[Na+].[Na+] [Compound 19]
- % F ([1]; PO, capsule (powder), 50 mg/kg as Compound 1 (free acid), reference Compound 1 IV infusion, based on AUC of Compound 1, 50 mg/kg): 80.2%
- AUC(0-inf) [1, 7]: 103000 ng·h/mL
- Cmax [1, 7]: 40400 ng/mL
- Tmax [1, 7]: 48 min
- half-life [1, 7]: 126 min
- solubility [2]: ~50 mg/mL
- % F ([4]; SD rat M, PO, capsule (powder), 50 mg/kg as Compound 1 (free acid), reference Compound 1 IV bolus, based on AUC of Compound 1, 50 mg/kg): 7.5%
- AUC(0-inf) [4, 22]: 1410 ng·h/mL
- Cmax [4, 22]: 640 ng/mL
- Tmax [4, 22]: 36 min
- half-life [4, 22]: 234 min
- bioavailability ([4]; rat, po, 50 mg/kg, SD rat M, capsule (powder), 50 mg/kg as Compound 1 (free acid), reference Compound 1 IV bolus, based on AUC of Compound 1): 5.7%

SMILES: CN(NC(=O)CC(=O)NN(C)C(=S)c1ccccc1)C(=S)c1ccccc1 [Compound 22]
- bioavailability ([4]; SD rat M, PO, Saline, 50 mg/kg): 10.5%
- AUC(0-inf) [4, 23]: 11600 ng·h/mL
- Cmax [4, 23]: 39100 ng/mL
- half-life [4, 23]: 222 min
- AUC(0-inf) [4, 24]: 4760 ng·h/mL
- Cmax [4, 24]: 2400 ng/mL
- Tmax [4, 24]: 37.8 min
- half-life [4, 24]: 150 min

SMILES: CN(NC(=O)CC(=O)NN(C)C(=S)c1ccccc1)C(=S)c1ccccc1 [Compound 26]
- AUC(0-inf) [1, 25]: 45600 ng·h/mL
- Cmax [1, 25]: 19700 ng/mL
- Tmax [1, 25]: 60 min
- half-life [1, 25]: 180 min
- AUC(0-inf) [4, 22]: 1080 ng·h/mL
- Cmax [4, 22]: 250 ng/mL
- Tmax [4, 22]: 54 min
- half-life [4, 22]: 222 min

Reference: patent publication US8618170B2, “Oral formulations of bis(thiohydrazide amides)” (Synta Pharmaceuticals Corp., priority 2007, dated 2013)
